On to `COc1ccc(C(=O)c2ccncc2)cc1`, for which the log partition coefficient (logP) worked out at 1.94.

As for `CN1C(=N)SC(=Cc2ccc([N+](=O)[O-])o2)C1=O`, the logP was 1.44.

`CCCCSC(C)(C)C(N)=O` yielded a lipophilicity (logP) of 1.81.

On to `CC(C)CNC(=O)NN`, for which the logP is -0.84.

As for `CSC(C)=NOC(=O)N(C)SN(C)C(=O)c1ccccc1Cl`, the logP was 2.5.

Turning to `COc1cc(Cc2cnc(N)nc2N)cc(OC)c1Br`, the logP came out at 2.01.

With `O=NN(CCCl)C(=O)NC(CCC(=O)O)C(=O)O` (stereo not given), the logP is 0.6.

Turning to `CCOC(=O)c1cnc2ccccn2c1=O`, the logP is 0.25.

`CC(=O)NCCn1c([N+](=O)[O-])cnc1C`: the log partition coefficient (logP) is -0.47.

`CC(=O)C(C#N)=NNc1ccccc1Cl` gave a lipophilicity (logP) of 4.

As for `CN(C)c1ccc2c(c1)C(c1ccccc1)=NCC(=O)N2`, the log partition coefficient (logP) stood at 2.43.

The compound `CN1CCN=C1Nc1ncc([N+](=O)[O-])s1` registered a logP of 1.8.

`N#Cc1ccc([N+](=O)[O-])n1CCO`: the lipophilicity (logP) worked out at 0.6.

`COc1ncnc2ccccc12` displayed a log partition coefficient (logP) of 1.97.

`O=C(CNC(=O)c1ccccc1)Oc1ccc(F)cc1` gave a logP of 2.46.

Compound `Cc1ccc(NC(=O)c2ccco2)c(O)c1` showed a logP of 2.84.

In the case of `CN(C)C(=O)OCc1ccccc1`, the logP stood at 2.16.

`O=C(O)COc1ccc(Cl)c(C(=O)O)c1` yielded a log partition coefficient (logP) of 1.07.

Compound `Nc1cccc(OC(=O)CNC(=O)c2ccccc2)c1` displayed a logP of 1.3.

Compound `Cc1cccc(N=NN(C)C)c1` showed a logP of 2.85.

In turn, `CNC(=O)ON=Cc1ccc(Cl)cc1` returned a logP of 2.27.

`COC(=O)C(C#N)=NNc1ccc(C(F)(F)F)cc1[N+](=O)[O-]` registered a logP of 3.44.

With `O=[N+]([O-])c1nccn1CC(O)CO` (stereo not given), the logP is -0.96.

On to `CN1C(=O)SC(=CC=Cc2ccc([N+](=O)[O-])o2)C1=O`, for which the logP amounted to 1.4.

Compound `O=[N+]([O-])c1ccc(Oc2ccc(C(F)(F)F)cc2[N+](=O)[O-])cc1` registered a lipophilicity (logP) of 3.65.

Take `Clc1ccc(Cl)c(-c2ccccc2)c1Cl`: the logP came to 5.67.

`O=S1(=O)NC(c2cccs2)=Nc2ccccc21` showed a log partition coefficient (logP) of 1.68.

For the compound `CN(C)C(=O)Cc1cccs1`, the lipophilicity (logP) came out at 0.65.

Regarding `Cn1c(=O)nc(-c2ccccc2)c2ccccc21`, the logP is 1.79.

Take `CCN1CCN=C1Nc1ncc([N+](=O)[O-])s1`: the logP was 2.28.

Compound `CC(C)(C)C(=O)C(C#N)=NNc1cc(Cl)c(Cl)cc1Cl` had a logP of 5.86.

Regarding `CC1(C)N=C(N)N=C(N)N1c1ccc(I)cc1`, the lipophilicity (logP) is 1.39.

Consider `CCCSc1nnc(C(C)C)c(=O)n1N`, for which the log partition coefficient (logP) turned out to be 2.12.

In turn, `CCOC(=O)C(=Cc1ccc(C)cc1)C(C)=O` yielded a logP of 2.63.

Regarding `CSC(C)=NOC(=O)N(C)SN(C)C(=O)c1c(Cl)cccc1Cl`, the logP came to 2.6. This logP and that of the compound before are within 0.2 log units of each other.

`CCN(CCOC(C)=O)c1ccccc1` had a logP of 2.04.

Turning to `COc1cc(Cc2cnc(N)nc2N)cc(OC)c1SC`, the lipophilicity (logP) turned out to be 1.54.

With `COc1ccccc1OC1OC(CO)C(O)C(O)C1O` (stereo not given), the logP is -1.04.

`[O-][n+]1ccccc1SCc1ccccc1` showed a logP of 1.24.

On to `OCC1OC(OC2CCCCC2)C(O)C(O)C1O` (stereo not given), for which the log partition coefficient (logP) was -0.63.

The compound `COn1c(=O)[nH]c(C)c(Br)c1=O` came in with a logP of -0.3.

Compound `O=[N+]([O-])c1nccn1C1OC(CO)C(O)C1O` (stereo not given) registered a logP of -1.15.

In the case of `CN(C)C(=O)Oc1ccccc1Br`, the lipophilicity (logP) is 2.17.

As to `CCC(C)N(C)/N=N/c1nc[nH]c1C(N)=O` (stereo not given), the logP is 1.08.

Consider `COC(CN1CCCC1)c1ccccc1` (stereo not given), for which the log partition coefficient (logP) was found to be 1.88.

`O=C1CN=C(c2ccccc2)c2cc([N+](=O)[O-])ccc2N1CC(O)CO` (stereo not given) yielded a logP of 0.96.

`CCOc1ccccc1OC(=O)NC` showed a log partition coefficient (logP) of 1.24.

For the compound `O=C1CCC(=O)N1c1cccc(F)c1`, the logP is 0.38.

For the compound `NS(=O)(=O)c1ccc2c(c1)S(=O)(=O)NC(Cc1ccccc1)N2` (stereo not given), the lipophilicity (logP) amounted to 1.03.

As for `O=C(O)c1ccccc1Nc1cccc(O)c1`, the lipophilicity (logP) stood at 3.49.

`CC1=C(C(=O)O)SCCO1` registered a logP of 0.04.

`c1cncc(CCN2CCCCC2)c1` gave a logP of 1.66.

Regarding `O=NN(CCCl)C(=O)NC1CCS(=O)(=O)CC1`, the logP is 0.19.

`CCCCOCc1c(CO)cnc(C)c1O` returned a log partition coefficient (logP) of 1.34.

`COc1cc(Cc2cnc(N)nc2N)cc(O)c1O` showed a logP of -0.31.

The compound `Cc1csc(C=Cc2ccc([N+](=O)[O-])o2)n1` yielded a logP of 1.53.

Take `Fc1cccc(F)c1N=C1NCCN1`: the logP is 0.93.

On to `CN(C)C(=O)c1cnc2ccccc2c1`, for which the log partition coefficient (logP) turned out to be 0.99.

In turn, `CN(C)C(=O)Cc1ccsc1` showed a log partition coefficient (logP) of 0.65.

For the compound `CCOC(=O)C(C#N)=NNc1ccc(Cl)c(Cl)c1`, the logP was 4.66.

The compound `Nc1nc(-c2ccccc2)c2ccccc2n1` returned a log partition coefficient (logP) of 2.95.

For `Cc1cc2c(cc1Cc1cnc(N)nc1N)OCO2`, the logP is 1.89.

As for `COC(=O)[C@@H]1[C@@H](C=C(C)C)C1(C)C`, the logP was determined as 3.76.

For the compound `O=C(O)COc1cccc(S(=O)(=O)C(F)(F)F)c1`, the lipophilicity (logP) stood at 2.19.

`CNC(=N)NC(=N)Nc1ccc(Cl)cc1`: the log partition coefficient (logP) is 1.58.

Source of the values: the OPERA property sets (Mansouri et al. 2018).
